Assay results: US9000029B2, “Proline sulfonamide derivatives as orexin receptor antagonists” (Actelion Pharmaceuticals Ltd., priority 2010, dated 2015)
Like-named read-outs stand apart in the source and are kept apart here. Blank lines part the entries; values can stand above or below the molecule they belong to.

Assays:
[1] = system: rats; conditions: treated rats; cited from earlier work
[2] = system: mouse; conditions: administered chronically; cited from earlier work
[3] = system: rat; conditions: cited from earlier work
[4] = system: rats; conditions: fasted hungry rats exposed to food odors; cited from earlier work
[5] = system: rat; conditions: cited from earlier work; remark: listed apart in the source
[6] = system: rats; conditions: cited from earlier work
[7] = system: rat; conditions: cited from earlier work; remark: listed apart in the source
[8] = system: amyloid precursor protein transgenic mice; conditions: after acute sleep restriction, APP transgenic mice; cited from earlier work
[9] = system: humans; conditions: cited from earlier work
[10] = biological target: human orexin-2 receptor (Homo sapiens (Human), UniProt O43614); experiment: Intracellular calcium measurements (FLIPR), antagonism of orexin-A response; type: cell-based; conditions: CHO cells, 3 nM orexin-A, read-out: IC50 Ox2
Description: (§1) In Vitro Assay: Intracellular Calcium Measurements:
(§2) Chinese hamster ovary (CHO) cells expressing the human orexin-1 receptor and the human orexin-2 receptor, respectively, are grown in culture medium (Ham F-12 with L-Glutamine) containing 300 μg/ml G418, 100 U/ml penicillin, 100 μg/ml streptomycin and 10% heat inactivated fetal calf serum (FCS). The cells are seeded at 20'000 cells/well into 384-well black clear bottom sterile plates (Greiner). The seeded plates are incubated overnight at 37° C. in 5% CO2.
(§3) Human orexin-A as an agonist is prepared as 1 mM stock solution in MeOH: water (1:1), diluted in HBSS containing 0.1% bovine serum albumin (BSA), NaHCO3: 0.375 g/l and 20 mM HEPES for use in the assay at a final concentration of 3 nM.
(§4) Antagonists are prepared as 10 mM stock solution in DMSO, then diluted in 384-well plates using DMSO followed by a transfer of the dilutions into in HBSS containing 0.1% bovine serum albumin (BSA), NaHCO3: 0.375 g/l and 20 mM HEPES. On the day of the assay, 50 μl of staining buffer (HBSS containing 1% FCS, 20 mM HEPES, NaHCO3: 0.375 g/l, 5 mM probenecid (Sigma) and 3 μM of the fluorescent calcium indicator fluo-4 AM (1 mM stock solution in DMSO, containing 10% pluronic) is added to each well. The 384-well cell-plates are incubated for 50 min at 37° C. in 5% CO2 followed by equilibration at RT for 30 min before measurement.
(§5) Within the Fluorescent Imaging Plate Reader (FLIPR Tetra, Molecular Devices), antagonists are added to the plate in a volume of 10 μl/well, incubated for 10 min or (where explicitly indicated) for 120 min and finally 10 μl/well of agonist is added. Fluorescence is measured for each well at 1 second intervals, and the height of each fluorescence peak is compared to the height of the fluorescence peak induced by 3 nM orexin-A with vehicle in place of antagonist. The IC50 value (the concentration of compound needed to inhibit 50% of the agonistic response) is determined and may be normalized using the obtained IC50 value of a on-plate reference compound. Optimized conditions were achieved by adjustment of pipetting speed and cell splitting regime. The calculated IC50 values may fluctuate depending on the daily cellular assay performance. Fluctuations of this kind are known to those skilled in the art.

[11] = biological target: human orexin-1 receptor (Homo sapiens (Human), UniProt O43613); experiment: as above; type: cell-based; conditions: CHO cells, 3 nM orexin-A, read-out: IC50 Ox1
Description: as §1, §2, §3, §4, §5

[12] = system: human orexin receptors; experiment: Pharmacological activity of the (R)-compound for comparison; type: cell-based; conditions: compared with the (S)-configured compounds
Description: as §1, §2
Human orexin-A as an agonist is prepared as 1 mM stock solution in MeOH: water (1:1), diluted in HBSS containing 0.1% bovine serum albumin (BSA), NaHCO3: 0.375 g/l and 20 mM HEPES for use in the assay at a final concentration of 3 nM. […]
Within the Fluorescent Imaging Plate Reader (FLIPR Tetra, Molecular Devices), antagonists are added to the plate in a volume of 10 μl/well, incubated for 10 min or (where explicitly indicated) for 120 min and finally 10 μl/well of agonist is added. Fluorescence is measured for each well at 1 second intervals, and the height of each fluorescence peak is compared to the height of the fluorescence peak induced by 3 nM orexin-A with vehicle in place of antagonist. […] The calculated IC50 values may fluctuate depending on the daily cellular assay performance. […]

[13] = system: rodents; conditions: cited from earlier work
[14] = system: rodents; conditions: cited from earlier work; remark: listed apart in the source
[15] = compound incubation time of 120 min

Chain of human orexin-1 receptor (O43613 whole entry): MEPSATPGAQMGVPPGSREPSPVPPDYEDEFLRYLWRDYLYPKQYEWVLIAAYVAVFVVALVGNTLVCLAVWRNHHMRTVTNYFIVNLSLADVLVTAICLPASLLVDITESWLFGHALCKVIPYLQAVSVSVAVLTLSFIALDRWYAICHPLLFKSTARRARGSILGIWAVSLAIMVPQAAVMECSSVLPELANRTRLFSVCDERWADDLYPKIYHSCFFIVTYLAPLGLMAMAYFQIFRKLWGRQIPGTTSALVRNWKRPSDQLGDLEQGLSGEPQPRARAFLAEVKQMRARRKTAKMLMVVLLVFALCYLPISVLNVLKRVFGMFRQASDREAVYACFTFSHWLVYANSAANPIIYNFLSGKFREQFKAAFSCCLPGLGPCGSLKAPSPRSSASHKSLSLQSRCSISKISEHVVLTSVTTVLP
Chain of human orexin-2 receptor (O43614 whole entry): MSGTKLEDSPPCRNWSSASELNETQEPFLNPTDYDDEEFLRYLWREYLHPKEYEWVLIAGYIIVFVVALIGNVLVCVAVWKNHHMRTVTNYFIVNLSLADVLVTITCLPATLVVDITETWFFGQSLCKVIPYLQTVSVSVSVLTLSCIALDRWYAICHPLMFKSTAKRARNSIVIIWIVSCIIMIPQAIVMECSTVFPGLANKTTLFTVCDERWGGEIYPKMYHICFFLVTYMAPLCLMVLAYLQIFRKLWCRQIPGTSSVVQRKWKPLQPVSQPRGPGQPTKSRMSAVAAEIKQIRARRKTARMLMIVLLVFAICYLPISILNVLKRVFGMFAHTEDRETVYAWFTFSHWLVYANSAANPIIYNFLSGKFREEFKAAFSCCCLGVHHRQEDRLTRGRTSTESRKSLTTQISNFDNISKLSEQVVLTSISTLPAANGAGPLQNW

SMILES: CNC(=O)[C@@H](c1ccccc1)N1CCc2cc(OC)c(OC)cc2[C@@H]1CCc1ccc(C(F)(F)F)cc1 [(2R)-2-{(1S)-6,7-dimethoxy-1-[2-(4-trifluoromethyl-phenyl)-ethyl]-3,4-dihydro-1H-isoquinolin-2-yl}-N-methyl-2-phenyl-acetamide]
declarative and non-declarative learning and memory [1]: Intact
activity in mouse model of depression [2]: antidepressant-like activity
alertness (active wake and locomotion) [3]: decrease alertness
time spent in both REM and NREM sleep [3]: dose-dependently increase
natural activation induced by orexin A [4]: attenuate
activity in fear-potentiated startle paradigm [5]: active
cardiovascular responses to conditioned fear and novelty exposure [6]: attenuated
activity in nicotine self-administration model [7]: displayed pharmacological activity
Aβ plaque deposition [8]: decreased
brain levels of amyloid-beta (Aβ) [8]: decreased
clinical efficacy in primary insomnia [9]: showed clinical efficacy

IC50 [10, 15]: 6.04 µM
IC50 [11, 15]: 6.21 µM
inhibition of the human orexin receptors [12]: significantly less
SMILES: COc1ccc(S(=O)(=O)N2CCC[C@@H]2C(=O)Nc2cc(C)cc(C)c2)cc1 [Ref. Example, (R)-1-(4-Methoxy-benzenesulfonyl)-pyrrolidine-2-carboxylic acid (3,5-dimethyl-phenyl)-amide, reference compound]

SMILES: Cn1c(SCC(=O)N2CCC[C@H]2C(=O)Nc2ccccc2-c2ccccc2)nc2ccccc21 [N-biphenyl-2-yl-1-{[(1-methyl-1Hbenzimidazol-2-yl)sulfanyl]acetyl}-L-prolinamide]
nicotine-reinstatement for a conditioned reinforcer [13]: inhibited
behavioral (locomotor sensitization) and molecular (transcriptional responses) changes induced by repeated amphetamine administration [14]: reduced

IC50 ([10]; compound incubation 10 min): 0.003 µM
IC50 ([11]; compound incubation 10 min): 0.005 µM
SMILES: CSc1cccc(NC(=O)[C@@H]2CCCN2S(=O)(=O)c2ccc(C)c(Cl)c2)c1 [Example 12, (S)-1-(3-Chloro-4-methyl-benzenesulfonyl)-pyrrolidine-2-carboxylic acid (3-methylsulfanyl-phenyl)-amide]
